Assay results published in PubChem BioAssay (NCI).
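1) Cells in 96-well plates. 2) Compound, 48 h, 5 concentrations. 3) Linear interpolation between surrounding doses. 4) Unreached endpoint = highest concentration. The concentration for 50% growth inhibition is given as GI50. TGI: concentration producing complete growth inhibition.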

Tests used:
Assay in all cases: NCI-60 cell line screen, 48 h
[1] = system: 786-0 renal
[2] = system: A498 renal
[3] = system: A549 NSCLC
[4] = system: ACHN renal
[5] = system: BT-549 breast
[6] = system: CAKI-1 renal
[7] = system: CCRF-CEM leukemia
[8] = system: COLO 205 colon
[9] = system: DU-145 prostate
[10] = system: EKVX NSCLC
[11] = system: HCC-2998 colon
[12] = system: HCT-116 colon
[13] = system: HCT-15 colon
[14] = system: HL-60(TB) leukemia
[15] = system: HOP-62 NSCLC
[16] = system: HOP-92 NSCLC
[17] = system: HS 578T breast
[18] = system: HT29 colon
[19] = system: IGROV1 ovarian
[20] = system: K-562 leukemia
[21] = system: KM12 colon
[22] = system: LOX IMVI melanoma
[23] = system: M14 melanoma
[24] = system: MALME-3M melanoma
[25] = system: MCF7 breast
[26] = system: MDA-MB-231 breast
[27] = system: MDA-MB-435
[28] = system: MDA-MB-468 breast
[29] = system: MOLT-4 leukemia
[30] = system: NCI-H226 lung
[31] = system: NCI-H23 lung
[32] = system: NCI-H460 lung
[33] = system: NCI-H522 lung
[34] = system: NCI/ADR-RES ovarian
[35] = system: OVCAR-3 ovarian
[36] = system: OVCAR-4 ovarian
[37] = system: OVCAR-5 ovarian
[38] = system: OVCAR-8 ovarian
[39] = system: PC-3 prostate
[40] = system: RPMI-8226 leukemia
[41] = system: RXF 393 renal
[42] = system: SF-268 CNS
[43] = system: SF-295 CNS
[44] = system: SF-539 CNS
[45] = system: SK-MEL-2 melanoma
[46] = system: SK-MEL-28 melanoma
[47] = system: SK-MEL-5 melanoma
[48] = system: SK-OV-3 ovarian
[49] = system: SN12C renal
[50] = system: SNB-19 CNS
[51] = system: SNB-75 CNS
[52] = system: SR leukemia
[53] = system: SW-620 colon
[54] = system: T-47D breast
[55] = system: TK-10 renal
[56] = system: U251 CNS
[57] = system: UACC-257 melanoma
[58] = system: UACC-62 melanoma
[59] = system: UO-31 renal

CN1CCN(Cc2ccc(C(=O)Nc3cccc(C#Cc4cccc5[nH]nc(N)c45)c3)cc2C(F)(F)F)CC1
GI50 [1]: 1280 nM
TGI [1]: 2610 nM
GI50 [2]: 2380 nM
TGI [2]: 3950 nM
GI50 [3]: 721 nM
TGI [3]: 2010 nM
GI50 [4]: 409 nM
TGI [4]: 1400 nM
GI50 [5]: 1800 nM
TGI [5]: 4060 nM
GI50 [6]: 1160 nM
TGI [6]: 2370 nM
GI50 [7]: 1170 nM
TGI [7]: 3330 nM
GI50 [8]: 862 nM
TGI [8]: 2210 nM
GI50 [9]: 1200 nM
TGI [9]: 2460 nM
GI50 [10]: 1090 nM
TGI [10]: 2300 nM
GI50 [11]: 880 nM
TGI [11]: 2190 nM
GI50 [12]: 420 nM
TGI [12]: 1620 nM
GI50 [13]: 648 nM
TGI [13]: 1780 nM
GI50 [14]: 278 nM
TGI [14]: 1600 nM
GI50 [15]: 1470 nM
TGI [15]: 2890 nM
GI50 [16]: 285 nM
TGI [16]: 1400 nM
GI50 [17]: 1330 nM
TGI [17]: 4640 nM
GI50 [18]: 603 nM
TGI [18]: 1940 nM
GI50 [19]: 387 nM
TGI [19]: 1440 nM
TGI [20]: 1020 nM
GI50 [21]: 1410 nM
TGI [21]: 2930 nM
GI50 [22]: 469 nM
TGI [22]: 1610 nM
GI50 [23]: 420 nM
TGI [23]: 1650 nM
GI50 [24]: 284 nM
TGI [24]: 1200 nM
GI50 [25]: 1510 nM
TGI [25]: 2900 nM
GI50 [26]: 401 nM
TGI [26]: 1730 nM
GI50 [27]: 1090 nM
TGI [27]: 2450 nM
GI50 [28]: 760 nM
TGI [28]: 2080 nM
GI50 [29]: 494 nM
TGI [29]: 2280 nM
GI50 [30]: 1000 nM
TGI [30]: 2180 nM
GI50 [31]: 1250 nM
TGI [31]: 2530 nM
GI50 [32]: 982 nM
TGI [32]: 2530 nM
GI50 [33]: 752 nM
TGI [33]: 2160 nM
GI50 [34]: 1480 nM
TGI [34]: 3320 nM
GI50 [35]: 1000 nM
TGI [35]: 2510 nM
GI50 [36]: 889 nM
TGI [36]: 3140 nM
GI50 [37]: 1280 nM
TGI [37]: 2600 nM
GI50 [38]: 1160 nM
TGI [38]: 2380 nM
GI50 [39]: 1000 nM
TGI [39]: 2770 nM
GI50 [40]: 1120 nM
TGI [40]: 3260 nM
GI50 [41]: 571 nM
TGI [41]: 1820 nM
GI50 [42]: 1070 nM
TGI [42]: 2420 nM
GI50 [43]: 1330 nM
TGI [43]: 2630 nM
GI50 [44]: 305 nM
TGI [44]: 1350 nM
GI50 [45]: 1530 nM
TGI [45]: 3030 nM
GI50 [46]: 1260 nM
TGI [46]: 2530 nM
GI50 [47]: 1490 nM
TGI [47]: 2810 nM
GI50 [48]: 1940 nM
TGI [48]: 3470 nM
GI50 [49]: 739 nM
TGI [49]: 2140 nM
GI50 [50]: 1840 nM
TGI [50]: 3250 nM
GI50 [51]: 1450 nM
TGI [51]: 3690 nM
GI50 [52]: 1100 nM
TGI [52]: 3350 nM
GI50 [53]: 968 nM
TGI [53]: 2370 nM
GI50 [54]: 1560 nM
TGI [54]: 3270 nM
GI50 [55]: 1750 nM
TGI [55]: 3170 nM
GI50 [56]: 1220 nM
TGI [56]: 2470 nM
GI50 [57]: 1360 nM
TGI [57]: 2730 nM
GI50 [58]: 1140 nM
TGI [58]: 2390 nM
GI50 [59]: 854 nM
TGI [59]: 2090 nM
